Consider four compounds from ChEMBL document CHEMBL1201862, “PubChem BioAssay data set” (2004).

Common to all, as to assay: NCI anticancer screen, dose series, 48 h
Assay [1] deals with 786-0.
The subject of assay [2] is CCRF-CEM.
Assay [3] deals with HOP-62.
The subject of assay [4] is IGROV-1.
Assay [5] deals with LOX IMVI.
Assay [6] has as its system MOLT-4.
Assay [7] deals with Malme-3M.
Assay [8] concerns NCI-H522.
Assay [9] relates to OVCAR-3.
For assay [10], the system named is OVCAR-4.
The test system of assay [11] is OVCAR-5.
In assay [12] the test system is OVCAR-8.
Assay [13] has as its system RPMI-8226.
Assay [14] concerns RXF 393.
Assay [15] concerns SF-295.
The subject of assay [16] is SK-OV-3.
The test system of assay [17] is SR.
The subject of assay [18] is TK-10.
The test system of assay [19] is UACC-257.
In assay [20] the test system is UACC-62.

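Protocol summary: plate cells (96-well), add compound at 5 concentrations, incubate 48 h, interpolate endpoints linearly. GI50: concentration for 50% inhibition of growth.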 The source made the active and inactive calls. No stated cut-off is given here; in the data, active = GI50 up to about 1.1 µM and inactive = higher. Some results are limits rather than exact numbers.

For `CC/C=C/C[C@H](O[Si](C)(C)C(C)(C)C)[C@H]1C[C@H]2O[C@H]([C@@H](O)C#C[Si](C)(C)C)C[C@H]2O1`, the GI50 is 14.7 µM (inactive) in assay [1]; 21.5 µM (inactive) in [2]; 16.1 µM (inactive) in assay [3]; 14.3 µM (inactive) in assay [4]; 10.4 µM (inactive) in [5]; 12.6 µM (inactive) in assay [6]. The GI50 in assay [7] was 11.9 µM (inactive); in assay [8], 3.64 µM (inactive); in assay [9], 14.8 µM (inactive); in assay [10], 5.85 µM (inactive); in assay [11] it was 14.1 µM (inactive); in [12], 14.8 µM (inactive). In addition, the GI50 in assay [13] was 12.9 µM (inactive); in assay [14], 6.65 µM (inactive); in assay [15], 14.3 µM (inactive); in assay [16] it was 15.5 µM (inactive); in [17], 2.31 µM (inactive); in assay [18], 15.2 µM (inactive). Also, the figures for the GI50 in assay [19] and in [20] were 9.75 µM (inactive) and 17.7 µM (inactive), respectively.

With `CC1(C)N=C(N)N=C(N)N1c1ccc(CCCCc2ccc(S(=O)(=O)F)cc2Cl)c(Cl)c1`, the GI50 was 0.186 µM (active) in assay [1]; 1.62 µM (inactive) in assay [2]; 9.35 µM (inactive) in assay [3]; 0.39 µM (active) in assay [4]; 1.75 µM (inactive) in [5]; 0.995 µM (active) in assay [6]. For the same compound, the GI50 in [7] was 4.05 µM (inactive); in assay [8] it was 4.68 µM (inactive); in [9], 5.71 µM (inactive); in assay [10], 37.2 µM (inactive); in assay [11], 17.2 µM (inactive); in assay [12], 4.46 µM (inactive). In addition, the GI50 in [13] was 3.05 µM (inactive); in assay [14], 14.2 µM (inactive); in assay [15] it was 1.84 µM (inactive); in [16], 106 µM (inactive); in assay [17], 0.207 µM (active); in assay [18] it was 27.7 µM (inactive). Further, the GI50 in [19] is 5.56 µM (inactive); in assay [20] it was 0.258 µM (active).

Turning to `CN(C)c1ccc(C2SCC(=O)N2c2nc3cc4sc(N5C(=O)CSC5c5ccc(N(C)C)cc5)nc4cc3s2)cc1` (centres undefined), the GI50 in assay [1] is > 100 µM (inactive); in assay [2], 3.41 µM (inactive); in [3], 56.6 µM (inactive); in [4], 29.3 µM (inactive); in [5], 43.9 µM (inactive); in assay [6] it was 3.37 µM (inactive). Moreover, the GI50 in assay [7] is > 100 µM (inactive); in [8] it was 3.76 µM (inactive); in [9], 48.3 µM (inactive); in assay [10], 32.9 µM (inactive); in assay [11], > 94 µM (inactive); in [12], > 70.5 µM (inactive). Moreover, the GI50 in assay [13] was 19.5 µM (inactive); in assay [14], > 100 µM (inactive); in [15], 46.6 µM (inactive); in assay [16], 85.7 µM (inactive); in [17], 6.62 µM (inactive); in assay [18] it was > 100 µM (inactive). For the same compound, the figures for the GI50 in [19] and in assay [20] were > 25.5 µM (inactive) and > 72.3 µM (inactive), respectively.

As to `CCC(Sc1cc(Cl)c(C)cc1S(=O)(=O)Nc1nc(N)nc(N(C)C)n1)C(=O)O` (centres undefined), the GI50 in assay [1], in assay [2], in [3], in assay [4], in [5] and in assay [6] was > 10 µM (inactive) each time. For the same compound, the GI50 in [7], in [8], in [9], in [10], in assay [11] and in [12] was > 10 µM (inactive) throughout. Besides, the GI50 in assay [13], in assay [14], in [15], in assay [16], in [17] and in [18] was > 10 µM (inactive) throughout. Further, the GI50 in assay [19] is > 10 µM (inactive).
